Experimental data published in ChEMBL document CHEMBL1146664, “Cytochrome P450/NADPH-dependent formation of trans epoxides from trans-arachidonic acids” (Bioorg Med Chem Lett, 2004).

Test: Level reaching in blood plasma of rat or human was determined
Type: ADME, cell-free

Row | Activity [µM] | SMILES
1 | 0.5 | CCCCC/C=C/CC1OC1C/C=C\C/C=C\CCCC(=O)O (stereo not given)
2 | 0.5 | CCCCCC(O)C(O)C/C=C\C/C=C\C/C=C\CCCC(=O)O (stereo not given)
3 | 0.5 | CCCCCC1OC1C/C=C\C/C=C\C/C=C\CCCC(=O)O (trans isomer)
4 | 0.5 | CCCCC/C=C/CC(O)C(O)C/C=C\C/C=C\CCCC(=O)O (trans isomer)

Row | SMILES | Activity [µM]
5 | CCCCC/C=C/C/C=C\C/C=C\C/C=C\CCCC(=O)O | 0.5
